Experimental data from publication PMC8079033, “Design, synthesis, anticancer evaluation, and molecular modelling studies of novel tolmetin derivatives as potential VEGFR-2 inhibitors and apoptosis inducers” (Journal of Enzyme Inhibition and Medicinal Chemistry, 2021).

How the values were obtained:
[1] = test system: leukaemia HL-60 (TB) cell line; test: MTT cytotoxicity assay; type: cell-based; settings: Homo sapiens, mean ± SD of three experiments
colon (HCT-15) cell line = test: MTT cytotoxicity assay; type: cell-based; settings: Homo sapiens, mean ± SD of three experiments
renal (UO-31) cell line = test: MTT cytotoxicity assay; type: cell-based; settings: Homo sapiens, mean ± SD of three experiments
HUVECs = test: Wound healing assay (CytoSelect 24-well); type: cell-based, human; settings: 72 h, 5b 2.4 µM, sunitinib 3.2 µM, control 97.03 ± 5.47
Protocol: Wound healing assay of compound 5b was evaluated using CytoSelect™ 24-Well Wound Healing Assay kit Catalog # CBA-120 according to manufacturer’s instructions. In brief, the 24-well plate wound healing inserts were allowed to warm up at room temperature for 10 minutes, then to each well, 500 µl of human umbilical vascular endothelial cells (HUVECs) suspension (1.0 × 10^6) in media containing 10% fetal bovine serum (FBS) was added. Cells were kept in a cell culture incubator until a monolayer form. Carefully the insert was removed from the well. The media were slowly aspirated and discarded from the wells. The wells were washed with media to remove dead cells and debris. Finally, the media were added to wells to keep cells hydrated, then wells were visualized under a light microscope. […] The percent closure of the cells into the wound field was measured.
One of the hallmarks of angiogenesis is cell migration, which happens in the earlier stages of the angiogenic cascade. A wound-healing assay was performed to investigate in vitro anti-angiogenic property of compound 5b.

caspase-3 = test: Caspase-3 (active) ELISA in HCT-15 cells; type: cell-based, human
Protocol: The level of the apoptotic marker caspase-3 was assessed using Human Caspase-3 (active) ELISA Kit Catalog # KHO1091. The procedure of the used kit was done according to the manufacturer’s instructions. Allow all reagents to reach room temperature before use. Gently mix all liquid reagents prior to use. Add 100 µl of the standard diluent buffer to the zero standard wells. Add 100 µl of standards and controls or diluted samples to the appropriate microtiter wells. Incubate for 2 h at room temperature. […] Incubate for 1 h at room temperature. Add 100 µl anti-rabbit IgG HRP working solution to each well. Prepare the working dilution and incubate for 30 min at room temperature. Add 100 µl of stabilised chromogen to each well. The liquid in the wells will begin to turn blue. Incubate for 30 min at room temperature and in the dark. Add 100 µl of stop solution to each well. The solution in the wells should change from blue to yellow. Read the absorbance of each well at 450 nm. Read the plate within 2 h after adding the stop solution. Use a curve fitting software to generate the standard curve. Read the concentrations for unknown samples and controls from the standard curve.
(§1) The activation of caspases as caspase-3, caspase-8, and caspase-9 is responsible for apoptosis, particularly caspase-3 which is an effector caspase that has an important role in apoptosis. It is activated by one of the initiator caspases which results in the activation of certain enzymes responsible for the fragmentation of DNA[53]. Caspase-8 and -9 are initiator caspases that are responsible for caspase-3 activation.

caspase-8 = test: Caspase-8 ELISA in HCT-15 cells; type: cell-based, human
Protocol: (§2) To measure caspase-8 and caspase-9 levels, DRG® Caspase-8 (human) (EIA-4863) ELISA and DRG® Caspase-9 (human) (EIA-4860) ELISA kits were used. Briefly, prepare cell extracts after induction of apoptosis. Resuspend the extracts in lysis buffer, incubate 60 min at room temperature, and centrifuge for 15 min. Wash the microwell strips with 400 µl wash buffer. Add 100 µl of sample diluent in duplicate to all standard wells. Add 100 µl of sample diluent in duplicate to the blank wells. Add 50 µl of sample diluent to the sample wells. Add 50 µl of each sample in duplicate to the sample wells. Add 50 µl of detection antibody to all wells and incubate at room temperature for 2 h. Add 100 µl of diluted anti-rabbit-IgG-HRP to all wells, including the blank wells. Pipette 100 µl of (3,3′,5,5′-Tetramethylbenzidine) TMB substrate solution to all wells and incubate at room temperature for about 15 min. Stop the enzyme reaction by pipetting 100 µl of stop solution into each well. Read absorbance of each microwell on a spectro-photometer using 450 nm. Determine the absorbance of both the samples and the standards.
as §1

caspase-9 = test: Caspase-9 ELISA in HCT-15 cells; type: cell-based, human
Protocol: as §2, §1

Compound: CCN(CC)CCNC(=O)c1c(C)[nH]c(/C=C2\C(=O)Nc3ccc(F)cc32)c1C [Sunitinib, reference compound]
- IC50 [1]: 2.77 ± 0.14 µM
- IC50 (colon (HCT-15) cell line): 9.06 ± 0.49 µM
- IC50 (renal (UO-31) cell line): 18.1 ± 0.95 µM
- Wound closure percentage (HUVECs): 44.44 ± 2.51%
- Caspase-3 (caspase-3; mean ± SD of three experiments, control 0.073 ± 0.01): 0.641 ± 0.02 ng/mL
- increase in the level of caspase-3 (caspase-3; vs control): 8.780 fold
- Caspase-8 (caspase-8; mean ± SD of three experiments, control 0.377 ± 0.03): 1.284 ± 0.11 ng/mL
- increase in the level of caspase-8 (caspase-8; vs control): 3.406 fold
- Caspase-9 (caspase-9; mean ± SD of three experiments, control 3.225 ± 0.44): 27.26 ± 0.82 ng/mL
- increase in the level of caspase-9 (caspase-9; vs control): 8.453 fold
